{
  "source": "patent US11414465B2",
  "about": "“Plasma membrane intrinsic aquaporin for absorbing and transporting neonicotinoid insecticides, and coding gene and use therefor” (JIANGSU ACADEMY OF ARGRICULTURAL SCIENCES, priority 2020, dated 2022)",
  "key": {"[1]": {"test_system": "Saccharomyces cerevisiae INVSc1 (pYES2)", "assay": "Thiamethoxam content experiment, control yeast strain", "type": "cell-based", "conditions": "30° C., 6 h", "excerpt": "(§1) The BraPIP1;1 gene cloned in Example 1 was constructed into the Saccharomyces cerevisiae overexpression vector pYES2 (purchased from Clotech) referring to (He Lin, Jiang Lili, Wang Yucheng, Analysis of the stress tolerance of Tamarix thioredoxin peroxidase (ThPrx1) gene transformed into yeast, Journal of Northeast Forestry University, 2011, Vol. 39. No. 4, 101-104), and the constructed recombinant plasmid was named pYES2-BraPIP1;1. The pYES2-BraPIP1;1 and an empty vector pYES2 were transformed into Saccharomyces cerevisiae INVSc1 by lithium acetate precipitation. The recombinant yeasts were named INVSc1 (pYES2-BraPIP1;1) and INVSc1 (pYES2), respectively.\n(§2) Induction of recombinant strains: Single colonies of the control yeast INvsc1 (pYES2) and the recombinant yeast INvscl (pYES2-BraPIP1;1) were picked, inoculated in an SC-U liquid medium (with glucose of a final concentration of 2%) respectively, and incubated at 30° C. for 24 h on a shaker. The OD600 value is measured, and the amount of bacterial solution required is calculated such that the OD600 of bacteria in 10 ml of induction medium (SC-U+2% galactose) is 0.4. Induce expression was carried out at 30° C. for 24 h. The OD600 value was measured again, and the amount of bacterial solution required was calculated. […]"}, "[2]": {"test_system": "Saccharomyces cerevisiae INVSc1 (pYES2-BraPIP1;1)", "assay": "Growth experiment of recombinant yeast strains under thiamethoxam stress", "type": "cell-based", "conditions": "10-1600 mg/L thiamethoxam, stress at 30° C. for 72 h, compared with wild strain (pYES2)", "excerpt": "as §1, §2"}, "BraPIP1;1 gene": {"test_system": "BraPIP1;1 gene", "assay": "Response of BraPIP1;1 gene expression to thiamethoxam (quantitative RT-PCR)", "type": "in vivo, Chinese cabbage", "conditions": "10 mg/L thiamethoxam, p<0.001", "experimental": "Seedlings of Chinese cabbage with the same growth condition were put in a Hoagland's nutrient solution containing 10 mg/L thiamethoxam (the Hoagland's nutrient solution was purchased from Beijing Coolaber Technology Co., Ltd.), and treated in the Hoagland's nutrient solution for 6 and 24 hours (treatment group).\nAt the same time, a Hoagland's nutrient solution without thiamethoxam was used as the control group.\nTreated root and aboveground tissue RNA of two groups was extracted respectively, the 1st strand cDNA was obtained by reverse transcription as a template, specific expression primers were designed based on the cDNA sequence of BraPIP1;1, the Chinese cabbage Tublin was used as an internal reference, and the expression of the gene transcription level was detected by quantitative RT-PCR.\nThe quantification instrument is 7500 Real Time PCR System (Applied Biosystem), and a qPCRT system was configured according to the instructions of a kit 2×TSINGKE Master qPCR Mix (Tsingke Biotechnology Co., Ltd.). The PCR program is: pre-denaturation at 95° C. for 10 min, at 95° C. for 15 s, and at 60° C. for 20 s, for 40 cycles."}, "[3]": {"test_system": "BraPIP1;1 overexpression Arabidopsis thaliana (BraPIP1;1#4, BraPIP1;1#6)", "assay": "Main root length of BraPIP1;1 transgenic Arabidopsis thaliana under thiamethoxam stress", "type": "in vivo", "conditions": "1/2MS media with 10 and 50 mg/L thiamethoxam, 20 days, compared with wild type Col-0", "excerpt": "(§3) The BraPIP1;1 gene cloned in Example 1 was constructed into the plant binary overexpression vector pCAMBIA2301 (purchased from Clotech). By the Agrobacterium tumefaciens-mediated method (Valvekens, D., van Montagu, M., and Lijsebettens, M. V. (1988). Agrobacterium tumefaciens-mediated transformation of Arabidopsis thaliana root explants by using kanamycin selection. Proc. Natl. Acad. Sci. USA 85, 5536-5540.), the inflorescence of wild-type Arabidopsis thaliana Col-0 (purchased from ATCC, USA) was infected with the constructed overexpression vector. Through screening (resistance pure line seedlings were screened on a ½MS plate containing 50 μg/mL kanamycin), BraPIP1;1 overexpression Arabidopsis thaliana pure line materials BraPIP1;1#4 and BraPIP1;1#6 were identified and obtained.\nThe pure line seeds of the BraPIP1;1#4 and BraPIP1;1#6 obtained in the previous transgenic experiment and a wild-type Col-0 material (WT) were germinated on a ½MS medium respectively, and then transferred to ½MS media (Qingdao Hopebio Co., Ltd., Item No. HB8469-12, PH=5.6) containing 10 and 50 mg/L thiamethoxam respectively. After 20 days, the growth of the seedlings was observed and the main root length was measured."}, "[4]": {"test_system": "Saccharomyces cerevisiae INVSc1 (pYES2-BraPIP1;1)", "assay": "Thiamethoxam content experiment, recombinant yeast strain", "type": "cell-based", "conditions": "30° C., 6 h", "excerpt": "as §1, §2"}, "[5]": {"test_system": "BraPIP1;1 overexpression Arabidopsis thaliana", "assay": "Thiamethoxam content of BraPIP1;1 transgenic Arabidopsis thaliana grown in soil", "type": "in vivo", "conditions": "soil containing 10 mg/L thiamethoxam, 20 days, compared with wild plant", "excerpt": "as §3\nIn addition, germinated seedlings of the same size were transplanted into soil containing 10 mg/L thiamethoxam, and after 20 days of culture, the root and aboveground samples of the transgenic Arabidopsis thaliana and the control were harvested respectively, washed with deionized water, and weighed."}, "Chinese cabbage plants": {"test_system": "Chinese cabbage plants", "conditions": "2 mg/L compound in Hoagland nutrient solution, mercuric chloride or glycerol added, 48 h"}},
  "data": [
    {"smiles": "CN1COCN(Cc2cnc(Cl)s2)/C1=N\\[N+](=O)[O-]", "note": "[thiamethoxam]", "values": [
      {"measurement": "thiamethoxam content of the control strain", "setting": "[1]; 10 mg/L thiamethoxam", "value": 0.0038, "unit": "ng/OD"},
      {"measurement": "thiamethoxam content of the control strain (pYES2)", "setting": "[1]; 100 mg/L thiamethoxam", "value": 0.011, "unit": "ng/OD"},
      {"measurement": "growth of transgenic strain (pYES2-BraPIP1;1) with thiamethoxam", "setting": "[2]", "value": "grows weaker than the wild strain"},
      {"measurement": "expression abundance of BraPIP1;1 in the aboveground parts vs control", "setting": "BraPIP1;1 gene; 6 hours", "value": "significantly increased"},
      {"measurement": "expression abundance of BraPIP1;1 in the roots vs control", "setting": "BraPIP1;1 gene; 6 hours", "value": "significantly increased"},
      {"measurement": "expression abundance of BraPIP1;1 in the aboveground parts vs control", "setting": "BraPIP1;1 gene; 24 hours", "value": "significantly increased"},
      {"measurement": "main root length of the transgenic strain", "setting": "[3]", "value": "shorter than that of the wild type"},
      {"measurement": "thiamethoxam content of the recombinant strain", "setting": "[4]; 10 mg/L thiamethoxam", "value": 0.0078, "unit": "ng/OD"},
      {"measurement": "thiamethoxam content of the recombinant strain (pYES2-BraPIP1;1)", "setting": "[4]; 100 mg/L thiamethoxam", "value": 0.021, "unit": "ng/OD"},
      {"measurement": "thiamethoxam content of the aboveground parts of the transgenic plant", "setting": "[5]", "value": "higher than that of the wild plant"},
      {"measurement": "thiamethoxam content of the roots of the transgenic plant", "setting": "[5]", "value": "higher than that of the wild plant"}
    ]},
    {"smiles": "CN1CCCC1c1cccnc1", "note": "(stereo not drawn) [nicotine]", "values": [
      {"measurement": "content of the compound in the plants after the water channel inhibitors were added", "setting": "Chinese cabbage plants", "value": "did not change significantly"}
    ]}
  ]
}
